Measured values reported in US20250011651A1, “OIL DISPERSANT FORMULATION, METHODS AND USES THEREOF” (INSTITUTO SUPERIOR TÉCNICO, priority 2021, published 2025).

Experiment: Hydrophilic-lipophilic balance (HLB)
Format: physicochemical
Conditions: single surfactant / MEL mixture
Text: Dispersants currently used in oil spills are usually a blend of non-ionic and anionic surfactants dissolved in a solvent base. Surfactants are amphiphilic molecules containing both hydrophobic and hydrophilic regions, so they are soluble in both oil and water phases. An empirical parameter used for the classification of surfactants is the hydrophilic-lipophilic balance (HLB) number. The HLB is defined as: […]
Where Mh is the molecular weight of the hydrophilic head group of the surfactant molecule, and M is the molecular mass of the complete molecule. HLB is given on a scale of 1-20. […] A surfactant with an HLB between 8 and 12 may promote either type of emulsion, but generally promotes O/W emulsions.
In an embodiment, the results can be explained by providing the molecular level discussion of the synergy between MEL and polyethylene glycol sorbitan monooleate molecules. As explained earlier, MELs are hydrophobic and polyethylene glycol sorbitan monooleate is quite hydrophilic and water soluble. The HLB of the combination of the two surfactants can be calculated by the following expression: […]
Where, WM and WPGSE are, respectively, the weight fraction of MELs and polyethylene glycol sorbitan ester, in particular polyethylene glycol sorbitan monooleate, in the blend.

HLB: 15
Substance: polyethylene glycol sorbitan monooleate
